Legend:
p38α MAP kinase = p38α MAP kinase (Homo sapiens, UniProt Q16539); experiment: phosphorylation of myelin basic protein (MBP) by p38α; type: biochemical
Procedure: The TTM2001.101.A09 bi-ligand compound and the fragments from which it was constructed were tested as inhibitors of p38α enzymatic activity in an assay measuring phosphorylation of myelin basic protein (MBP) by p38α.

[1] = biological target: unactivated p38α MAP kinase (Homo sapiens, UniProt Q16539); experiment: WaterLOGSY screen of PBBA structure analogs; type: binding; settings: 10 to 30 micromolar p38α, 0.1 to 1.0 millimolar compound, 4° C.
Description: A library of 29 PBBA structure analogs was screened against unlabeled p38α MAP kinase (p38α) as follows. Samples containing 10 to 30 micromolar concentration of unactivated p38α MAP kinase and 0.1 to 1.0 millimolar concentration of one of the PBBA structure analogs were obtained. The samples were screened using WaterLOGSY with saturations times of 2 s (frequency selective excitation via a train of 232 6 ms it pulses with a GAUSS profile at an 80 Hz RF field strength) with […] using WATERGATE at 4° C. WaterLOGSY is further described in Dalvit et al. J. Biomol. NMR 21:349-59 (2001) Dalvit et al. J. Magn. Res. B112:282-288 (1996) and Dalvit et al., J. Biomol. NMR 11:437-444 (1998).

ATP site of p38α = ATP site of p38α (Homo sapiens, UniProt Q16539); experiment: fluorescence polarization displacement of fluorescently tagged staurosporine; type: binding
p38α [2] = biological target: T1, p38α (Homo sapiens, UniProt Q16539); experiment: WaterLOGSY competition experiments; type: binding
Description: A peptide having the sequence […] (SEQ ID NO:1) is a known phosphorylation substrate for p38 as described, for example, in Chen et al. Biochemistry 39:2079-2087 (2000). […] This site is shown in the lower panel of FIG. 7, and is referred to as the SL (specificity ligand) site, since extending a bi-ligand library into this site off of an ATP mimic might provide additional specificity.

p38α [3] = biological target: T1, p38α; experiment: line broadening in 1D 1H NMR spectra; type: binding; parameters: dose or concentration left out as unconfirmed; settings: 50 micromolar compound
Procedure: The ability of TTM2001.101.A09 to bind to p38α was determined by comparing the degree of line broadening in 1D ^1H NMR spectra for the compound in the presence of p38α compared to in the absence of p38α. […] (FIG. 4b) compared to the spectrum obtained for 50 micromolar of TTM2001.101.A09 in the absence of p38α (FIG. 4a), indicative of tight binding between p38α and TTM2001.101.A09.

Sequence of p38α MAP kinase (Q16539 whole entry, the tested form may be a part): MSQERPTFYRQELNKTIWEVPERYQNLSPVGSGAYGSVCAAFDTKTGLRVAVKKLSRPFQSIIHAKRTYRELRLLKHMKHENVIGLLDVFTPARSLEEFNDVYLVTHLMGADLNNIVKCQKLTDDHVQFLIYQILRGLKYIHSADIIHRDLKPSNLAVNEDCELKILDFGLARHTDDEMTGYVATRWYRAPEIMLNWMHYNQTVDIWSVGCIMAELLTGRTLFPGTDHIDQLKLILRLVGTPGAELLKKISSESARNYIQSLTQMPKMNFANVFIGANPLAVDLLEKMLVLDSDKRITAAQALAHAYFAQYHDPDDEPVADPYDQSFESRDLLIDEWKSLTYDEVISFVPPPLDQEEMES
T1 sequence (Q16539 whole entry): as the sequence (Q16539 whole entry, the tested form may be a part) above
Sequence of ATP site of p38α (Q16539 whole entry): as the sequence (Q16539 whole entry, the tested form may be a part) above
Sequence of unactivated p38α MAP kinase (Q16539 whole entry): as the sequence (Q16539 whole entry, the tested form may be a part) above

## CCCCc1ccc(C(=O)O)cc1 [PBBA, p-butyl benzoic acid]
p38α MAP kinase
  inhibition of phosphorylation of MBP protein by p38α: inhibit phosphorylation of MBP protein by p38α
[1]
  cross-saturation effects with p38α (binding): showed cross-saturation effects with p38α indicating binding to the protein
ATP site of p38α
  displacement of fluorescently tagged staurosporine: not able to displace a fluorescently tagged staurosporine

## IPTTPITTTYFFFKKK [peptide, known phosphorylation substrate for p38]
p38α [2]
  displacement of PBBA from p38α: could not displace PBBA from p38α

## O=C(O)c1ccc(CCCCCCSCc2cc(-n3cnc4cc(C(=O)O)ccc43)ccc2F)cc1 [TTM2001.101.A09]
p38α MAP kinase; IC50 compared with starting fragments PBBA and TTM2001.082.B09
  tighter than either of the starting fragments: greater than 100 fold
p38α MAP kinase; correction of the IC50 for high ATP concentration, read-out: Kd for binding between p38α and compound
  Kd: ~300 nM
p38α MAP kinase; inhibition of MBP phosphorylation by p38α
  IC50: 1700 nM
p38α [3]
  line broadening in presence of p38α (binding): significant line-broadening

— US7964534B2, “Nuclear magnetic resonance assembly of chemical entities using advanced antenna probes” (Triad Liquidating Company, LLC, priority 2003, dated 2011)
